Reference: patent US20080311589A1, “METHOD OF HIGH-THROUGHPUT SCREENING OF MOLECULES AND COMPOUNDS FOR THEIR EFFECTS ON BIOLOGICAL AND CHEMICAL PROCESSES” (priority 1999, published 2008)

System: Mv1Lu mink lung epithelial cells
Experiment: 384 well anti-BrdU cytoblot
Type: cell-based
Conditions: 384-well plate; TGF-β 16 hours, then 10 μM BrdU 16 hours
From the text: FIG. 1. An immunodetection assay for DNA synthesis in high density arrays of mammalian cells. (a) Cartoon depiction of an anti-BrdU cytoblot. The thymine analog 5-bromodeoxyuridine (BrdU) is incorporated into the DNA of cells that are actively replicating their DNA. The cells are in the well, and BrdU is detected with a two step antibody binding procedure. The second antibody is conjugated to the enzyme horseradish peroxidase. In the presence of the chemiluminescent substrate luminol as well as hydrogen peroxide, light of wavelength 428 nm is generated. The light emission can be detected by exposing the plate to film. (b) A cytoblot can detect TGF-β's ability to prevent BrdU incorporation in mink lung epithelial cells. 2000 Mv1Lu mink lung epithelial cells were seeded in each well of a white, opaque 384 well plate. The cells were seeded in the indicated concentrations of TGF-β in 50 μL of DMEM with 1% fetal bovine serum (FBS), 100 units/mL penicillin G sodium, 100 μg/mL streptomycin sulfate and 100 μM each of the amino acids alanine, aspartic acid, glutamine, glycine, asparagine and proline (referred to throughout as 1% mink medium) and allowed to incubate at 37° C. with 5% CO2. After 16 hours, 5.5 μL of 100 μM BrdU in 1% mink medium was added to each well, for a final concentration of 10 μM BrdU. The cells were incubated at 37° C. with 5% CO2 for an additional 16 hours and then an anti-BrdU cytoblot protocol was performed (see protocol). Wells shown are magnified 4×.
FIG. 2. A cytoblot can detect the ability of numerous antiproliferative agents to inhibit BrdU incorporation. 2000 Mv1Lu mink lung epithelial cells were seeded in each well of a white, opaque 384 well plate. The cells were seeded in 40 μL of 1% mink media and immediately 40 μL of 2× stocks of the reagents shown was added to each well and the cells were allowed to incubate at 37° C. with 5% CO2. After 24 hours, 9 μL of 100 μM BrdU in 1% mink medium was added to each well, for a final concentration of 10 μM BrdU. The cells were incubated at 37° C. with 5% CO2 for an additional 16 hours and then an anti-BrdU cytoblot protocol was performed (see protocol). Wells shown are magnified 2.5×.
The ability of the cytoblot assay to detect changes in DNA synthesis was tested by measuring the incorporation of 5-bromodeoxyuridine (BrdU, Sigma Corporation, St. Louis, Mo., Cat.# B9285) into DNA in the presence or absence of the anti-mitogen transforming growth factor β (TGF-β). Mink lung cells, which are responsive to TGF-β, were seeded into each well of an opaque, white 384-well plate. The cells were subsequently treated with varying concentrations of TGF-β for 16 hours and then with 10 μM BrdU for 16 hours. […] The following protocols provide experimental detail. […]

TGF-β: anti-mitogen transforming growth factor β, multifunctional polypeptide signaling factor
BrdU incorporation: effectively prevented BrdU incorporation
